From patent publication US20220213047A1, “CARBONIC ANHYDRASE INHIBITORS FOR TREATMENT OF NEISSERIA GONORRHOEAE INFECTION” (Purdue Research Foundation, priority 2021, published 2022)
Values after ≈ are worked out from the molar mass of the structure shown. Read-outs that look alike come from different tables or passages of the source.

Key:
N. gonorrhoeae [1] = experiment: MIC by agar dilution on a larger panel of N. gonorrhoeae strains; type: cell-based, Neisseria gonorrhoeae; conditions: for MIC / MIC50 / MIC90: Neisseria gonorrhoeae; for Original MIC: in brackets in Table 8
Experimental: These tests were performed in normal culture conditions with standard CO2 levels and in CO2 (5% in incubator) conditions.

Bifidobacterium sp = experiment: MIC50 against pathogenic and commensal bacteria: Bifidobacterium sp; type: cell-based; conditions: Bifidobacterium sp (18 strains); normal
From the text: (§1) We have shown that CAIs display a narrow-spectrum of activity (Table 6). We have previously shown that CAIs have potential as anti-enterococcal agents for decolonization of the gut and treating systemic vancomycin-resistant enterococci (VRE) infections without affecting commensal strains common in the human microbiome or other pathogenic bacteria. […] The extremely narrow spectrum of this class of inhibitors would be a positive for clinical use as the molecules: 1) would not have deleterious effects on normal microbiota, and 2) would have less opportunity for resistance to arise to other important pathogenic strains aside from VRE.

L. crispatus = experiment: MIC50 against pathogenic and commensal bacteria: L. crispatus; type: cell-based; conditions: Lactobacillus crispatus; L. crispatus (2 strains); normal
From the text: as §1

L. jensenii = experiment: MIC50 against pathogenic and commensal bacteria: L. jensenii; type: cell-based; conditions: Lactobacillus jensenii; L. jensenii (3 strains); normal
From the text: as §1

L. johnsonii = experiment: MIC50 against pathogenic and commensal bacteria: L. johnsonii; type: cell-based; conditions: Lactobacillus johnsonii; L. johnsonii (1 strain); normal
From the text: as §1

S. pneumoniae = experiment: MIC50 against pathogenic and commensal bacteria: S. pneumoniae; type: cell-based; conditions: Streptococcus pneumoniae; S. pneumoniae (4 strains); normal
From the text: as §1

Enterobacter spp. = experiment: MIC50 against pathogenic and commensal bacteria: Enterobacter spp.; type: cell-based; conditions: Enterobacter spp. (4 strains); normal
From the text: as §1

Klebsiella spp. = experiment: MIC50 against pathogenic and commensal bacteria: Klebsiella spp.; type: cell-based; conditions: Klebsiella spp. (4 strains); normal
From the text: as §1

N. gonorrhoeae [2] = experiment: Post-antibiotic effect (PAE); type: cell-based; conditions: after exposure to 10×MIC for 1 hour
N. gonorrhoeae [3] = experiment: Multi-step resistance selection; type: cell-based; conditions: over ten passages
From the text: Frequency of mutation—multi-step mutation—We investigated N. gonorrhoeae's ability to develop resistance to CAIs using the multi-step resistance selection experiment^58.
N. gonorrhoeae cultures that grew at the highest concentrations of the compound are used as an inoculum for the subsequent culture.

N. gonorrhoeae [4] = experiment: Checkerboard assay, synergy with AZI; type: cell-based; conditions: combination with AZI, standard checkerboard assay
From the text: CAIs work synergistically with approved antibiotics—Dual therapy with ceftriaxone and azithromycin is the recommended approach to treat infections caused by N. gonorrhoeae. The use of two antibiotics in conjunction is thought to curb the rapid emergence of resistance to either antibiotic, if used alone. Thus, we investigated the potential of CAIs to be used in combination with other antibiotics against N. gonorrhoeae^56 (FIG. 5).

[5] = system: intracellular N. gonorrhoeae; experiment: Intracellular clearance of N. gonorrhoeae in infected endocervical cells (End1/E6E7); type: cell-based; conditions: 5×MIC, 24 hours
From the text: Intracellular clearance of N. gonorrhoeae—N. gonorrhoeae is known to invade epithelial cells of the genital tract and cross the epithelial barrier into the subepithelial space^59. Previous studies have shown that N. gonorrhoeae can survive inside host cells and pass epithelial cell layers (a key step in causing disseminated infections)^60,61. Therefore, a drug candidate must also be able to kill intracellular N. gonorrhoeae in order to be an effective therapeutic. Also, we were concerned that CAIs have reduced activity in high-CO2 conditions and may not be suitable to treat intracellular infection. Thus, we examined CAIs ability to reduce the burden of intracellular N. gonorrhoeae present in infected endocervical cells^56.

[6] = strain panel of Table 9, CO2 (5% CO2 containing air)

Compound: CCOc1ccc2nc(S(N)(=O)=O)sc2c1 [Ethoxzolamide]
- MIC (N. gonorrhoeae [1]; N. gonorrhoeae 197, CO2 (5% CO2 containing air), read-out: MIC): 128 µg/mL (≈ 496 µM)
- MIC (N. gonorrhoeae [1]; N. gonorrhoeae 197, Non CO2 (ambient air), read-out: MIC): 0.25 µg/mL (≈ 0.968 µM)
- MIC (N. gonorrhoeae [1]; N. gonorrhoeae 198, CO2 (5% CO2 containing air), read-out: MIC): > 128 µg/mL
- MIC (N. gonorrhoeae [1]; N. gonorrhoeae 198, Non CO2 (ambient air), read-out: MIC): 0.25 µg/mL (≈ 0.968 µM)
- MIC (N. gonorrhoeae [1]; N. gonorrhoeae 200, CO2 (5% CO2 containing air), read-out: MIC): > 128 µg/mL
- MIC (N. gonorrhoeae [1]; N. gonorrhoeae 200, Non CO2 (ambient air), read-out: MIC): 0.25 µg/mL (≈ 0.968 µM)
- MIC (N. gonorrhoeae [1]; N. gonorrhoeae 202, CO2 (5% CO2 containing air), read-out: MIC): 128 µg/mL (≈ 496 µM)
- MIC (N. gonorrhoeae [1]; N. gonorrhoeae 202, Non CO2 (ambient air), read-out: MIC): 0.06 µg/mL (≈ 0.232 µM)
- MIC (N. gonorrhoeae [1]; N. gonorrhoeae 203, CO2 (5% CO2 containing air), read-out: MIC): 64 µg/mL (≈ 248 µM)
- MIC (N. gonorrhoeae [1]; N. gonorrhoeae 205, CO2 (5% CO2 containing air), read-out: MIC): 128 µg/mL (≈ 496 µM)
- MIC (N. gonorrhoeae [1]; N. gonorrhoeae 206, CO2 (5% CO2 containing air), read-out: MIC): > 128 µg/mL
- MIC (N. gonorrhoeae [1]; N. gonorrhoeae 207, CO2 (5% CO2 containing air), read-out: MIC): 64 µg/mL (≈ 248 µM)
- MIC (N. gonorrhoeae [1]; N. gonorrhoeae 208, CO2 (5% CO2 containing air), read-out: MIC): > 128 µg/mL
- MIC (N. gonorrhoeae [1]; N. gonorrhoeae 209, CO2 (5% CO2 containing air), read-out: MIC): > 128 µg/mL
- MIC (N. gonorrhoeae [1]; N. gonorrhoeae 209, Non CO2 (ambient air), read-out: MIC): 0.06 µg/mL (≈ 0.232 µM)
- MIC (N. gonorrhoeae [1]; N. gonorrhoeae 210, CO2 (5% CO2 containing air), read-out: MIC): 64 µg/mL (≈ 248 µM)
- MIC (N. gonorrhoeae [1]; N. gonorrhoeae 211, CO2 (5% CO2 containing air), read-out: MIC): 64 µg/mL (≈ 248 µM)
- MIC (N. gonorrhoeae [1]; N. gonorrhoeae 211, Non CO2 (ambient air), read-out: MIC): 0.5 µg/mL (≈ 1.94 µM)
- MIC (N. gonorrhoeae [1]; N. gonorrhoeae 212, CO2 (5% CO2 containing air), read-out: MIC): 64 µg/mL (≈ 248 µM)
- MIC (N. gonorrhoeae [1]; N. gonorrhoeae 212, Non CO2 (ambient air), read-out: MIC): 0.25 µg/mL (≈ 0.968 µM)
- MIC (N. gonorrhoeae [1]; N. gonorrhoeae 213, CO2 (5% CO2 containing air), read-out: MIC): 64 µg/mL (≈ 248 µM)
- MIC (N. gonorrhoeae [1]; N. gonorrhoeae 214, CO2 (5% CO2 containing air), read-out: MIC): 64 µg/mL (≈ 248 µM)
- MIC (N. gonorrhoeae [1]; N. gonorrhoeae 214, Non CO2 (ambient air), read-out: MIC): 0.25 µg/mL (≈ 0.968 µM)
- MIC50 (N. gonorrhoeae [1]; N. gonorrhoeae (39 strains), CO2 (5% CO2 in the incubator)): > 128 µg/mL
- MIC50 (N. gonorrhoeae [1]; [6]): > 128 µg/mL
- MIC90 (N. gonorrhoeae [1]; [6]): > 128 µg/mL
- MIC (N. gonorrhoeae [1]; strain panel of Table 9, CO2 (5% CO2 containing air), read-out: Modal MIC): > 128 µg/mL
- MIC90 (N. gonorrhoeae [1]; strain panel of Table 9, Non CO2 (ambient air, standard CO2 conditions)): 0.5 µg/mL (≈ 1.94 µM)
- Original MIC (N. gonorrhoeae [1]; Ng 197): 0.25 µg/mL
- Original MIC (N. gonorrhoeae [1]; Ng 202): 0.06 µg/mL
- MIC50 (Bifidobacterium sp): > 256 µg/mL
- MIC50 (L. crispatus): > 256 µg/mL
- MIC50 (L. jensenii): > 256 µg/mL
- MIC50 (L. johnsonii): > 256 µg/mL
- MIC50 (S. pneumoniae): > 512 µg/mL
- MIC50 (Enterobacter spp.): > 256 µg/mL
- MIC50 (Klebsiella spp.): > 256 µg/mL
- PAE (N. gonorrhoeae [2]; Ng 181): 10 h
- PAE (N. gonorrhoeae [2]; Ng 186): 10 h
- PAE (N. gonorrhoeae [2]; Ng 194): 10 h
- PAE (N. gonorrhoeae [2]; Ng 198): 10 h
- PAE (N. gonorrhoeae [2]; clinical isolates of N. gonorrhoeae): 10 h
- increase in MIC (N. gonorrhoeae [3]): no increase
- FIC (N. gonorrhoeae [4]): 0.240
- reduction in N. gonorrhoeae inside infected endocervical cells [5]: 5.8 log10
